From patent US5863952A, “Enantiomers of 1-(3,4-dichlorobenzyl)-2-methylaminoindane” (SmithKline Beecham plc, priority 1995, dated 1999) come the findings set out here.

Assay [1] has as its system histological damage in the cerebral cortex after mid-cerebral artery occlusion. In words: Mouse MCAO model. The note with it: 10 mg.kg-1 i.p. 30 minutes post-ischaemia then 10 mg.kg-1 b.i.d. for 3 days, histology on 4th day. It is filed as in vivo, CD1 mice. The procedure: Male CD1 mice weighing 25-29 g were anaesthetised with tribromoethanol, placed on a heat-pad and maintained at 37° C. The mid-cerebral artery was cauterised and divided via the intra-cranial route. On completion of surgery the mice were placed in an incubator for 2 hours to maintain body temperature during the acute recovery phase. On the 4th day the mice were euthanased and the brains removed for histological analysis. The dosing protocol in these experiments was 10 mg.kg^-1 30 minutes post-ischaemia then 10 mg.kg^-1 b.i.d. for 3 days. Injections were given via the i.p. route, and the vehicle was distilled water.

The subject of assay [2] is histological damage in the CA1 region of the hippocampus after carotid artery occlusion. Description: Gerbil BCAO model. Format: in vivo, Mongolian gerbils. Conditions: 6 min carotid occlusion, 15 mg.kg-1 i.p. 30 minutes post-ischaemia then 5 mg.kg-1 b.i.d. for 3 days, histology on 5th day. Here is the method:
Male Mongolian gerbils weighing between 60-80 g were anaesthetised with halothane, placed on a heated mat and the carotid arteries occluded for 6 min. After reperfusion, the animals were sutured and placed in an incubator for 2 hours to maintain body temperature during the acute recovery phase. The animals were then caged separately and on the 5th day after the day of surgery they were euthanased and the brains removed for histological analysis. The dosing protocol in these experiments was 15 mg.kg^-1 30 minutes post-ischaemia then 5 mg.kg^-1 b.i.d. for 3 days. Injections were given via the i.p. route, and the vehicle was distilled water.

Assay [3] relates to voltage gated Ca2+ channel currents (remaining, predominantly N type, calcium current) in superior cervical ganglion neurons. Description: Ca2+ current measurement, whole cell recording in cultured superior cervical ganglion neurons. It is filed as cell-based. Conditions: 5 μM drug coapplied with 10 μM Nimodipine for three minutes; 10 mM Ba2+ as charge carrier; holding potential -80 mV, test potential 0 or +10 mV; Hydrochloride. Here is the method: Lett., 77, 55-60 (1987). Cells were plated onto laminin coated plastic tissue culture dishes and incubated at 37° C. until just prior to recording. Electrophysiological recordings were performed from 2 to 9 days after dissociation. The pipette (internal solution) contained in mM: CsCl, 130; HEPES, 10; EGTA, 10; MgCl2, 4; ATP, 2; buffered to pH 7.2 with CsOH. Cells were bathed in a normal Tyrodes solution before establishment of whole cell recording when the bathing solution was changed to one allowing isolation of Ca^2+ currents. The external solution for recording Ca^2+ channel currents contained in mM: BaCl2, 10; TEA-Cl, 130; glucose, 10; HEPES, 10; MgCl2, 1; buffered to pH 7.3 with TEA-OH. […] Whole cell currents were recorded using List EPC-7 amplifiers and stored, digitised for later analysis using PC based software similar to that described previously (Benham & Tsien, Journal of Physiology (1988), 404, 767-784). Peak voltage gated Ca^2+ channel currents of up to 10 nA were recorded using 10 mM Ba^2+ as charge carrier. […] The rundown rate was measured in control conditions and extrapolated through the time of drug application to derive a rundown corrected control value. Once a constant calcium current had been recorded for 4 successive pulses (1 minute) 10 μM Nimodipine, a dihydropyridine, was applied to the cell to block L type calcium current. […]

Each structure is given as a SMILES string.

`CN[C@H]1Cc2ccccc2[C@H]1Cc1ccc(Cl)c(Cl)c1.Cl` (single isomer, unassigned) [Example 1, (+)cis-1-(3,4-Dichlorobenzyl)-2-methylaminoindane Hydrochloride]: in assay [1], the “attenuation of histological damage in the cerebral cortex compared with ischaemic vehicle-treated animals” value was “significant attenuation of the histological damage”. Moreover, the “attenuation of histological damage in the CA1 region of the hippocampus compared with ischaemic vehicle-treated animals” value in assay [2] was “significant attenuation of the histological damage”. The “inhibition of plateau Ca2+ current” value in assay [3] was found to be 95%.
On to `CN[C@H]1Cc2ccccc2[C@H]1Cc1ccc(Cl)c(Cl)c1.Cl` (single isomer, unassigned) [Example 2, (-)cis-1-(3,4-Dichlorobenzyl)-2-methylaminoindane Hydrochloride], for which, in assay [1], the “attenuation of histological damage in the cerebral cortex compared with ischaemic vehicle-treated animals” value is “significant attenuation of the histological damage”. For the same molecule, the “attenuation of histological damage in the CA1 region of the hippocampus compared with ischaemic vehicle-treated animals” value in assay [2] is recorded as “significant attenuation of the histological damage”. The “inhibition of plateau Ca2+ current” value in assay [3] came out at 99%.
